Results on two molecules are retold here after patent publication US6518318B1, “Stimulating transport of glucose into animal tissue by the administration of pinitol” (priority 1999, dated 2003).

One experiment deals with L6 Myoblasts. The experiment can be described thus: Glucose uptake (glucose transport) in cell culture. To be noted: for GLUCOSE TRANSPORT: Table 3, control 151. Type of experiment: cell-based. On the procedure:
Glucose transport was tested and measured in accordance with the protocol set forth in Amira Kip et al., Induction of Sugar Uptake Response to Insulin by Serum Depletion in Fusing L6 Myoblasts, American Journal of Physiology, Vol. 247, No. 3, Part 1 (September 1984), herein incorporated by reference, except that the cell culture was preincubated for only 2 hours and the cells treated with varying concentrations of pinitol, insulin or a combination thereof as set forth in Tables One through Three. The raw data, in terms of “counts per minute” as measured with a scintillation counter, is provided in Tables One and Two, while calculated data, in terms of “pmol min^−1 mg protein^−1,” is provided in Table Three.

A further experiment has as its system cells. Kind of experiment: Glycogen formation (14-C glucose incorporation into ethanol-precipitable glycogen). It is filed as cell-based. On the procedure: The method for glycogen incorporation is similar to that of J. Berger and N. S. Hayes, Anal Biochem. 261: 159-163 (1998), one of several standard references for radiolabeled (14-C) glucose incorporation into ethanol-precipitable glycogen. Into each well was added 1.25 mil of 1% TritonX100. The wells were then placed on a rotating agitator for 30 minutes to dissolve the cells. A 1 ml sample was removed from each well and placed in a 10 ml plastic tube. Into each sample was added 1 ml of a solution containing 18% trichloroacetic acid and 2 mg/ml of glycogen (added as carrier). The treated samples were placed on ice for 20 minutes and then centrifuged for 10 minutes at 10,000 RPM with the supernatant transferred to new plastic tubes. The remaining solids were washed by adding 0.3 ml of the trichloracetic acid-glycogen solution to the pellet, and centrifuged again as before. The combined supernatants were added to 4 ml of ice cold ethanol and 0.25 ml of 2% sodium sulphate (to help precipitate glycogen, as in L. Y. Hung and L. A. Menahan, Biochemical Medicine, Vol. 24: 356-360 (1980)). This was left overnight at 4° C. The precipitate was collected the next day by centrilugation at 10,000 RPM for 10 min. The precipitate was redisolved in water (2 ml) and reprecipitated as before with ethanol and sodium sulphate. The precipitate was dissolved in water, added to scintillation fluid, and radioactivity determined.

[1] abbreviates: Experiment Two, administered alone, at higher concentrations.

For `CO[C@H]1[C@H](O)[C@@H](O)[C@@H](O)[C@H](O)[C@@H]1O` [Pinitol], the “stimulation of glucose transport (conclusion)” value was “significant stimulation in glucose transport” in the experiment on L6 Myoblasts (setting [1]); “significant stimulation in glucose transport” in the experiment with L6 Myoblasts (alone, higher concentrations (e.g., 1.44 mM)); “does not meaningfully stimulate glucose transport” in the experiment with L6 Myoblasts (alone, low concentrations (e.g., 0.14 mM)). The “COUNTS PER MINUTE (glucose uptake)” value was determined as 5221 counts per minute in the experiment with L6 Myoblasts (Table 1, Pinitol 0.14 mM, raw data, control 5185); 6009 counts per minute in the experiment on L6 Myoblasts (Table 1, Pinitol 1.44 mM, raw data, control 5185); 6007 counts per minute with L6 Myoblasts (Table 2, Pinitol 1.0 mM, control 3178). In addition, the “GLUCOSE TRANSPORT” value in the experiment with L6 Myoblasts (Pinitol 0.14 mM, calculated data) was 155 pmol · min^−1 · mg protein^−1. Further, the “GLYCOGEN FORMATION 1st Set” value came out at 68.36 nmol/min/mg with cells (Table 4, Pinitol 1.4 mM); 57.75 nmol/min/mg in the experiment with cells (Table 4, Pinitol 144.0 mM); 102.40 nmol/min/mg in the experiment with cells (Table Five, Pinitol 1.4 mM); 123.03 nmol/min/mg in the experiment on cells (Table Five, Pinitol 144 mM). Further, the “GLYCOGEN FORMATION 2nd Set” value with cells (Table 4, Pinitol 1.4 mM) amounted to 79.08 nmol/min/mg; in the experiment with cells (Table 4, Pinitol 144.0 mM), 83.14 nmol/min/mg; with cells (Table Five, Pinitol 1.4 mM), 117.18 nmol/min/mg; in the experiment on cells (Table Five, Pinitol 144 mM), 211.04 nmol/min/mg. In addition, the “GLYCOGEN FORMATION 3rd Set” value in the experiment on cells (Table 4, Pinitol 1.4 mM) was 64.37 nmol/min/mg; in the experiment with cells (Table 4, Pinitol 144.0 mM) it was 64.24 nmol/min/mg; in the experiment on cells (Table Five, Pinitol 1.4 mM) it was 183.05 nmol/min/mg; in the experiment with cells (Table Five, Pinitol 144 mM), 146.53 nmol/min/mg. The “GLYCOGEN FORMATION Average” value in the experiment on cells (Table 4, Pinitol 1.4 mM, control 52.44 ± 4.58) turned out to be 70.60 ± 7.61 nmol/min/mg; with cells (Table 4, Pinitol 144.0 mM, control 52.44 ± 4.58), 68.38 ± 13.19 nmol/min/mg; in the experiment on cells (Table Five, Pinitol 1.4 mM, control 130.18 ± 20.87), 133.14 ± 30.99 nmol/min/mg; in the experiment on cells (Table Five, Pinitol 144 mM, control 130.18 ± 20.87) it was 161.71 ± 46.39 nmol/min/mg. The “GLYCOGEN FORMATION 4th Set” value in the experiment with cells (Table Five, Pinitol 1.4 mM) came to 113.15 nmol/min/mg; in the experiment with cells (Table Five, Pinitol 144 mM), 192.74 nmol/min/mg. In addition, the “GLYCOGEN FORMATION 5th Set” value with cells (Table Five, Pinitol 1.4 mM) stood at 124.64 nmol/min/mg; in the experiment on cells (Table Five, Pinitol 144 mM) it was 97.05 nmol/min/mg. In addition, the “GLYCOGEN FORMATION 6th Set” value was determined as 158.40 nmol/min/mg with cells (Table Five, Pinitol 1.4 mM) and 199.85 nmol/min/mg with cells (Table Five, Pinitol 144 mM). In addition, the “stimulation of glycogen formation (conclusion)” value in the experiment with cells (administered alone) is “significant stimulation in glycogen formation”.

As for “Insulin: insulin, used to treat the cells alone or with pinitol as comparison”, in the experiment on L6 Myoblasts (setting [1]), the “stimulation of glucose transport (conclusion)” value is reported as “significant stimulation in glucose transport”. For the same molecule, in the experiment with L6 Myoblasts (Table 2, Insulin 10^−3 mM, control 3178), the “COUNTS PER MINUTE (glucose uptake)” value came out at 4477 counts per minute. Moreover, the “GLUCOSE TRANSPORT” value in the experiment with L6 Myoblasts (Insulin 10^−5 mM) was 200 pmol · min^−1 · mg protein^−1. Further, in the experiment with cells (Table 4, Insulin 10^−6 mM), the “GLYCOGEN FORMATION 1st Set” value stood at 136.27 nmol/min/mg, the “GLYCOGEN FORMATION 2nd Set” value was 96.14 nmol/min/mg and the “GLYCOGEN FORMATION 3rd Set” value stood at 212.09 nmol/min/mg. The “GLYCOGEN FORMATION Average” value with cells (Table 4, Insulin 10^−6 mM, control 52.44 ± 4.58) is listed as 148.17 ± 58.89 nmol/min/mg. Moreover, in the experiment on cells (Table 4, Insulin 10^−8 mM), the “GLYCOGEN FORMATION 1st Set” value came to 68.45 nmol/min/mg and the “GLYCOGEN FORMATION 2nd Set” value is 75.36 nmol/min/mg. In the experiment on cells (Table 4, Insulin 10^−8 mM, control 52.44 ± 4.58), the “GLYCOGEN FORMATION Average” value was determined as 71.90 ± 4.89 nmol/min/mg. Also, in the experiment on cells (Table Five, Insulin 10^−7 M), the “GLYCOGEN FORMATION 1st Set” value was 186.52 nmol/min/mg, the “GLYCOGEN FORMATION 2nd Set” value was determined as 179.88 nmol/min/mg, the “GLYCOGEN FORMATION 3rd Set” value came to 79.32 nmol/min/mg and the “GLYCOGEN FORMATION 4th Set” value stood at 167.44 nmol/min/mg. Besides, in the experiment with cells (Table Five, Insulin 10^−7 M), the “GLYCOGEN FORMATION 5th Set” value came to 136.35 nmol/min/mg. In addition, the “GLYCOGEN FORMATION Average” value in the experiment on cells (Table Five, Insulin 10^−7 M, control 130.18 ± 20.87) is 149.90 ± 43.91 nmol/min/mg.
